This note sets out measurements from patent US8613914B2, “Peptidomimetic sulfamide compounds and antiviral uses thereof” (Novartis AG, priority 2009, dated 2013).

Sequence of HCV NS3-4A serine protease (full-length NS3-4A protein) (P26664 1027-1657): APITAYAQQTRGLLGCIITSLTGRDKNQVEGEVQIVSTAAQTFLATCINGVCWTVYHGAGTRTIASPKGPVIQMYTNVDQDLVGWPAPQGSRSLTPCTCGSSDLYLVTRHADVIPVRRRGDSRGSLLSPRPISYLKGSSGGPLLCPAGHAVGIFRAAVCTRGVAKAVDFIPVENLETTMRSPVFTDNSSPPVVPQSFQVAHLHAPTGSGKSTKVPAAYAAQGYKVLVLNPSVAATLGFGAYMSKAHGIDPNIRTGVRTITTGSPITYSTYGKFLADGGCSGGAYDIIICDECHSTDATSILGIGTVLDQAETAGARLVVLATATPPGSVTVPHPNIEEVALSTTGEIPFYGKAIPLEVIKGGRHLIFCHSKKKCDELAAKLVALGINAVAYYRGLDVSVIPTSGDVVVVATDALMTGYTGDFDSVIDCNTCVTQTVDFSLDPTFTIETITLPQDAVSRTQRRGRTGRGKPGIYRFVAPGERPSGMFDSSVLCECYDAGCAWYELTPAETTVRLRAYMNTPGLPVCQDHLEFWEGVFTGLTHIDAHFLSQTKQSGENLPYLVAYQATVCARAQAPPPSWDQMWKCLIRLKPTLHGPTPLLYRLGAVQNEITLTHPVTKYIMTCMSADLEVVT
Sequence of HCV NS3-4A serine protease (full-length NS3-4A protein) (P26664 1658-1711 partner): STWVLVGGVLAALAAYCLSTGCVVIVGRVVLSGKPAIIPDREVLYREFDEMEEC

The assay has as its target HCV NS3-4A serine protease (full-length NS3-4A protein) (Hepatitis C virus genotype 1a (isolate 1) (HCV), UniProt P26664). Kind of assay: HCV NS3-4A protease assay. The assay is classed as biochemical, HCV genotype 1a. The conditions noted are these: strain HCV-1, fluorogenic peptide substrate, read-out: Protease assay Ex. 12 IC50. The method, then: The inhibitory activity of certain compounds of Table A against HCV NS3-4A serine protease is determined in a homogenous assay using the full-length NS3-4A protein (genotype 1a, strain HCV-1) and a commercially available internally-quenched fluorogenic peptide substrate as described by Taliani, M., et al. 1996 Anal. Biochem. 240:60-67, which is incorporated by reference in its entirety.
The term IC50 denotes the point on the concentration scale where inhibition reaches its midpoint. On to `C=C[C@@H]1C[C@]1(NC(=O)[C@@H]1C[C@@]2(CN1C(=O)[C@@H](NC(=O)[C@@H](NC(=O)[C@H]1CCCN1C(C)C)C1CCCCC1)C(C)(C)C)C(C)(C)C21CCC1)C(=O)NS(=O)(=O)N1CCCC1` [Compound 16, (5R,8S)-7-[(2S)-2-{[(2S)-2-cyclohexyl-2-({[(2R)-1-isopropylpyrrolidin-2-yl]carbonyl}amino)acetyl]amino}-3,3-dimethylbutanoyl]-10,10-dimethyl-N-{(1R,2S)-1-[(pyrrolidin-1-ylsulfonyl)carbamoyl]-2-vinylcyclopropyl}-7-azadispiro[3.0.4.1]decane-8-carboxamide], for which the IC50 worked out at 2.3 nM. With `C=C[C@@H]1C[C@]1(NC(=O)[C@@H]1C[C@@]2(CN1C(=O)[C@@H](NC(=O)[C@@H](NC(=O)[C@H]1CCN1C(C)C)C1CCCCC1)C(C)(C)C)C(C)(C)C21CCC1)C(=O)NS(=O)(=O)N1CCCC1` [Compound 18, (5R,8S)-7-[(2S)-2-{[(2S)-2-cyclohexyl-2-({[(2R)-1-isopropylazetidin-2-yl]carbonyl}amino)acetyl]amino}-3,3-dimethylbutanoyl]-10,10-dimethyl-N-{(1R,2S)-1-[(pyrrolidin-1-ylsulfonyl)carbamoyl]-2-vinylcyclopropyl}-7-azadispiro[3.0.4.1]decane-8-carboxamide] the figure was 10 nM; with `C=C[C@@H]1C[C@]1(NC(=O)[C@@H]1C[C@@]2(CN1C(=O)[C@@H](NC(=O)[C@@H](NC(=O)C1CN(C(C)C)C1)C1CCCCC1)C(C)(C)C)C(C)(C)C21CCC1)C(=O)NS(=O)(=O)N1CCCC1` [Compound 19, (5R,8S)-7-[(2S)-2-{[(2S)-2-cyclohexyl-2-{[(1-isopropylazetidin-3-yl)carbonyl]amino}acetyl]amino}-3,3-dimethylbutanoyl]-10,10-dimethyl-N-{(1R,2S)-1-[(pyrrolidin-1-ylsulfonyl)carbamoyl]-2-vinylcyclopropyl}-7-azadispiro[3.0.4.1]decane-8-carboxamide], 55 nM; with `C=C[C@@H]1C[C@]1(NC(=O)[C@@H]1C[C@@]2(CN1C(=O)[C@@H](NC(=O)[C@@H](NC(=O)[C@@H]1CCCCN1CCF)C(C)(C)C)C(C)(C)C)C(C)(C)C21CCC1)C(=O)NS(=O)(=O)N1CCCC1` [Compound 20, (5R,8S)-7-[(2S)-2-{[(2S)-2-({[(2S)-1-(2-fluoroethyl)piperidin-2-yl]carbonyl}amino)-3,3-dimethylbutanoyl]amino}-3,3-dimethylbutanoyl]-10,10-dimethyl-N-{(1R,2S)-1-[(pyrrolidin-1-ylsulfonyl)carbamoyl]-2-vinylcyclopropyl}-7-azadispiro[3.0.4.1]decane-8-carboxamide], 70 nM.

For `C=C[C@@H]1C[C@]1(NC(=O)[C@@H]1C[C@@]2(CN1C(=O)[C@@H](NC(=O)[C@@H](NC(=O)[C@H]1CCCN1C(C)C)C(C)(C)C)C(C)(C)C)C(C)(C)C21CCC1)C(=O)NS(=O)(=O)N1CCCC1` [Compound 21, (5R,8S)-7-[(2S)-2-{[(2S)-2-({[(2R)-1-isopropylpyrrolidin-2-yl]carbonyl}amino)-3,3-dimethylbutanoyl]amino}-3,3-dimethylbutanoyl]-10,10-dimethyl-N-{(1R,2S)-1-[(pyrrolidin-1-ylsulfonyl)carbamoyl]-2-vinylcyclopropyl}-7-azadispiro[3.0.4.1]decane-8-carboxamide], the IC50 came to 35 nM. Under `C=C[C@@H]1C[C@]1(NC(=O)[C@@H]1C[C@@]2(CN1C(=O)[C@@H](NC(=O)[C@@H](NC(=O)[C@H]1CCN1C(C)C)C(C)(C)C)C(C)(C)C)C(C)(C)C21CCC1)C(=O)NS(=O)(=O)N1CCCC1` [Compound 22, (5R,8S)-7-[(2S)-2-{[(2S)-2-({[(2R)-1-isopropylazetidin-2-yl]carbonyl}amino)-3,3-dimethylbutanoyl]amino}-3,3-dimethylbutanoyl]-10,10-dimethyl-N-{(1R,2S)-1-[(pyrrolidin-1-ylsulfonyl)carbamoyl]-2-vinylcyclopropyl}-7-azadispiro[3.0.4.1]decane-8-carboxamide] stands 95 nM. In the case of `C=C[C@@H]1C[C@]1(NC(=O)[C@@H]1C[C@@]2(CN1C(=O)[C@@H](NC(=O)[C@@H](NC(=O)C1CN(C(C)C)C1)C(C)(C)C)C(C)(C)C)C(C)(C)C21CCC1)C(=O)NS(=O)(=O)N1CCCC1` [Compound 23, (5R,8S)-7-[(2S)-2-{[(2S)-2-{[(1-isopropylazetidin-3-yl)carbonyl]amino}-3,3-dimethylbutanoyl]amino}-3,3-dimethylbutanoyl]-10,10-dimethyl-N-{(1R,2S)-1-[(pyrrolidin-1-ylsulfonyl)carbamoyl]-2-vinylcyclopropyl}-7-azadispiro[3.0.4.1]decane-8-carboxamide], the IC50 came to 400 nM. Under `C=C[C@@H]1C[C@]1(NC(=O)[C@@H]1C[C@@]2(CN1C(=O)[C@@H](NC(=O)[C@@H](NC(=O)C(C)(C)N1CCCCC1)C(C)(C)C)C(C)(C)C)C(C)(C)C21CCC1)C(=O)NS(=O)(=O)N1CCCC1` [Compound 24, (5R,8S)-7-[(2S)-2-({(2S)-3,3-dimethyl-2-[(2-methyl-2-piperidin-1-ylpropanoyl)amino]butanoyl}amino)-3,3-dimethylbutanoyl]-10,10-dimethyl-N-{(1R,2S)-1-[(pyrrolidin-1-ylsulfonyl)carbamoyl]-2-vinylcyclopropyl}-7-azadispiro[3.0.4.1]decane-8-carboxamide] stands 65 nM.

Regarding `C=C[C@@H]1C[C@]1(NC(=O)[C@@H]1C[C@@]2(CN1C(=O)[C@@H](NC(=O)[C@@H](NC(=O)C(C)(C)N1CCCCC1)C1CCCCC1)C(C)(C)C)C(C)(C)C21CCC1)C(=O)NS(=O)(=O)N1CCCC1` [Compound 25, (5R,8S)-7-[(2S)-2-({(2S)-2-cyclohexyl-2-[(2-methyl-2-piperidin-1-ylpropanoyl)amino]acetyl}amino)-3,3-dimethylbutanoyl]-10,10-dimethyl-N-{(1R,2S)-1-[(pyrrolidin-1-ylsulfonyl)carbamoyl]-2-vinylcyclopropyl}-7-azadispiro[3.0.4.1]decane-8-carboxamide], the concentration for half-maximal inhibition (IC50) was determined as 8 nM. Under `C=C[C@@H]1C[C@]1(NC(=O)[C@@H]1C[C@@]2(CN1C(=O)[C@@H](NC(=O)[C@@H](NC(=O)[C@@H]1CCCCN1CCF)C1CCCCC1)C(C)(C)C)C(C)(C)C21CCC1)C(=O)NS(=O)(=O)N1CCCC1` [Compound 26, (5R,8S)-7-[(2S)-2-{[(2S)-2-cyclohexyl-2-({[(2S)-1-(2-fluoroethyl)piperidin-2-yl]carbonyl}amino)acetyl]amino}-3,3-dimethylbutanoyl]-10,10-dimethyl-N-{(1R,2S)-1-[(pyrrolidin-1-ylsulfonyl)carbamoyl]-2-vinylcyclopropyl}-7-azadispiro[3.0.4.1]decane-8-carboxamide] stands 15 nM. With `C=C[C@@H]1C[C@]1(NC(=O)[C@@H]1C[C@@]2(CN1C(=O)[C@@H](NC(=O)[C@@H](NC(=O)[C@@H]1CCCN1C1CCCC1)C1CCCCC1)C(C)(C)C)C(C)(C)C21CCC1)C(=O)NS(=O)(=O)N1CCCC1` [Compound 28, (5R,8S)-7-[(2S)-2-{[(2S)-2-cyclohexyl-2-({[(2S)-1-cyclopentylpyrrolidin-2-yl]carbonyl}amino)acetyl]amino}-3,3-dimethylbutanoyl]-10,10-dimethyl-N-{(1R,2S)-1-[(pyrrolidin-1-ylsulfonyl)carbamoyl]-2-vinylcyclopropyl}-7-azadispiro[3.0.4.1]decane-8-carboxamide] the figure was 2 nM; with `C=C[C@@H]1C[C@]1(NC(=O)[C@@H]1C[C@@]2(CN1C(=O)[C@@H](NC(=O)[C@@H](NC(=O)[C@@H]1Cc3[nH]cnc3CN1)C(C)(C)C)C(C)(C)C)C(C)(C)C21CCC1)C(=O)NS(=O)(=O)N1CCCC1` [Compound 29, (5R,8S)-7-[(2S)-2-{[(2S)-3,3-dimethyl-2-{[(6S)-4,5,6,7-tetrahydro-1H-imidazo[4,5-c]pyridin-6-ylcarbonyl]amino}butanoyl]amino}-3,3-dimethylbutanoyl]-10,10-dimethyl-N-{(1R,2S)-1-[(pyrrolidin-1-ylsulfonyl)carbamoyl]-2-vinylcyclopropyl}-7-azadispiro[3.0.4.1]decane-8-carboxamide], 40 nM.

As to `CC[C@@H]1C[C@]1(NC(=O)[C@@H]1C[C@@]2(CN1C(=O)[C@@H](NC(=O)[C@@H](NC(=O)[C@@H]1CCCCN1C(C)C)C(C)(C)C)C(C)(C)C)C(C)(C)C21CCC1)C(=O)NS(=O)(=O)N1CCCC1` [Compound 30, (5R,8S)-N-{(1R,2R)-2-ethyl-1-[(pyrrolidin-1-ylsulfonyl)carbamoyl]cyclopropyl}-7-[(2S)-2-{[(2S)-2-({[(2S)-1-isopropylpiperidin-2-yl]carbonyl}amino)-3,3-dimethylbutanoyl]amino}-3,3-dimethylbutanoyl]-10,10-dimethyl-7-azadispiro[3.0.4.1]decane-8-carboxamide], the half-maximal inhibitory concentration (IC50) worked out at 62 nM. With `C=C[C@@H]1C[C@]1(NC(=O)[C@@H]1C[C@@]2(CN1C(=O)[C@@H](NC(=O)[C@@H](NC(=O)[C@@H]1CCCCN1C1CCCC1)C(C)(C)C)C(C)(C)C)C(C)(C)C21CCC1)C(=O)NS(=O)(=O)N1CCCC1` [Compound 31, (5R,8S)-7-[(2S)-2-{[(2S)-2-({[(2S)-1-cyclopentylpiperidin-2-yl]carbonyl}amino)-3,3-dimethylbutanoyl]amino}-3,3-dimethylbutanoyl]-10,10-dimethyl-N-{(1R,2S)-1-[(pyrrolidin-1-ylsulfonyl)carbamoyl]-2-vinylcyclopropyl}-7-azadispiro[3.0.4.1]decane-8-carboxamide] the figure was 8 nM.
